Earlier results, collected in patent US20210161190A1, “CORE BODY TEMPERATURE REDUCING AGENT, FOOD PRODUCT, AND SLEEP IMPROVING AGENT” (JAPAN TOBACCO INC., priority 2018, published 2021).

What was measured:
[1] = tested on: mouse models of sleep disorder caused by imposed stress
[2] = intake of glycine
[3] = stress-imposed mouse models, continuous administration 350 to 3000 mg/kg of body weight per day

SMILES	circadian variation in core body temperature ([1]; mice without imposed stress)	REM sleep [1, 3]	non-REM sleep [1, 3]	core body temperature after intake [2]	percentage of Non-REM sleep [2]
O=C[C@H](O)[C@H](O)[C@H](O)CO [D-ribose]	hardly affected	suppressed reduction in REM sleep	promoted increases in non-REM sleep	–	–
NCC(=O)O [glycine]	–	–	–	reduces core body temperature	improves the percentage of Non-REM sleep
